In publication PMC8518494 (Angewandte Chemie (International Ed. in English), 2021):
Read-outs that look alike come from different tables or passages of the source.

Legend:
[1] = target: T1, Y27A-TbpA (Escherichia coli, UniProt P31550, Y27A); assay: Nanopore recording of ligand binding to Y27A-TbpA inside ClyA-AS
T1 sequence (P31550 19-327 Y27A): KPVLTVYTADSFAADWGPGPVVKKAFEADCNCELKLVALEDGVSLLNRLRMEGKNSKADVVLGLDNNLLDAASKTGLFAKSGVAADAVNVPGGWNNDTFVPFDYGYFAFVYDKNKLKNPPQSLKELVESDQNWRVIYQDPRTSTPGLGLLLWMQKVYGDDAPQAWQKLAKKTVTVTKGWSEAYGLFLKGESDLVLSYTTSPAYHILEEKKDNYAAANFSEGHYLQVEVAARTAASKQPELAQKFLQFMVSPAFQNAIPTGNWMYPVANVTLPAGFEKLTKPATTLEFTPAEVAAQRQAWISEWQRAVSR

[2] = target: T2, WT-TbpA (Escherichia coli, UniProt P31550); assay: biochemical
[3] = target: T2, WT-TbpA

T2 sequence (P31550 19-327): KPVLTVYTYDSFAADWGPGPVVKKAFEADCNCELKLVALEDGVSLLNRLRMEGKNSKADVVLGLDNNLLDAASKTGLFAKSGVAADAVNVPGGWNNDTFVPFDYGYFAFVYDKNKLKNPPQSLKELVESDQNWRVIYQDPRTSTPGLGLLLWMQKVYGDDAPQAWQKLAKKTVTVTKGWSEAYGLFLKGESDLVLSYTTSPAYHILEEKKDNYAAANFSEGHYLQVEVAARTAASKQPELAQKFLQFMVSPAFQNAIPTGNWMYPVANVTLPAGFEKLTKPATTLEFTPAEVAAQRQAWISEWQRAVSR

Cc1ncc(C[n+]2csc(CCO)c2C)c(N)n1 [thiamine, Thiamine]
Kd ([1]; Kd app(cis), thiamine added to cis, Hill curve fit to bound fraction): 23.1 ± 0.1 nM
Kd ([1]; Kd app(trans), thiamine added to trans): 91.1 ± 0.4 nM
difference in apparent Kd between cis and trans ([1]; Y27A-TbpA): 4 fold
difference in k on rates between cis and trans ([1]; Y27A-TbpA): 4 fold
ΔIres%(thiamine) ([1]; Y27A-TbpA 15 nM cis, 4 μM thiamine added to cis, −45 mV): 6.9±0.6%
Ires%(thiamine), closed state ([1]; Y27A-TbpA, thiamine-bound state): 48.4±0.9%
koff ([1]; read-out: k off(cis)): 1.8 ± 0.3 s⁻¹
koff ([1]; read-out: k off(trans)): 1.7 ± 0.1 s⁻¹
kon ([1]; read-out: k on(cis)): 6.9e+07 ± 9e+06 M⁻¹ s⁻¹
kon ([1]; read-out: k on(trans)): 1.4e+07 ± 3e+06 M⁻¹ s⁻¹
effect of addition of thiamine to the trans chamber ([1]; thiamine added to trans, Y27A-TbpA in cis): induced thiamine events
Hill coefficient ([1]; thiamine, cis and trans): 1
Kd [2]: 67 ± 5 nM
ΔIres%(thiamine) ([3]; WT-TbpA 15 nM cis, 4 μM thiamine added to cis, −45 mV, 150 mM NaCl, 15 mM Tris.HCl pH 7.5): 3.1±0.6%
Ires%(thiamine), closed state ([3]; WT-TbpA, thiamine-bound state): 45.9±0.8%
effect of addition of thiamine to the trans solution ([3]; thiamine added to trans, WT-TbpA in cis): did not elicit additional current blockades

Cc1ncc(C[n+]2csc(CCO[P@](=O)(O)OP(=O)(O)O)c2C)c(N)n1 [ThDP, thiamine diphosphate]
Kd [1]: ~2000 nM
ΔIres%(ThDP1) ([1]; 2 μM ThDP added to cis, first type of event): 4.0±0.1%
ΔIres%(ThDP2) ([1]; 2 μM ThDP added to cis, second type of event): 7.2±0.1%
capture frequency for both events ([1]; 2 μM ThDP, cis): 6.5 ± 3 µM⁻¹ s⁻¹
koff ([1]; read-out: k off(ThDP1)): 2.9 ± 0.4 s⁻¹
koff ([1]; read-out: k off(ThDP2)): 1.7 ± 0.3 s⁻¹

Cc1ncc(C[n+]2csc(CCOP(=O)(O)O)c2C)c(N)n1 [ThMP, thiamine monophosphate]
ΔIres%(ThMP1) ([1]; 0.1 μM ThMP added to cis, first kind of bound event): 4.8±0.2%
ΔIres%(ThMP2) ([1]; 0.1 μM ThMP added to cis, second kind of bound event): 7.3±0.3%
kon ([1]; read-out: capture frequency (an approximate k on) for both events): 1.6e+07 ± 4e+06 M⁻¹ s⁻¹
koff ([1]; read-out: k off(ThMP1)): 2.3 ± 0.4 s⁻¹
koff ([1]; read-out: k off(ThMP2)): 2 ± 0.2 s⁻¹
